Data: US20110318431A1, “Pharmaceutical Compositions and Methods of Treating Neurological Insults” (ENDOGENX, priority 2008, published 2011)
“Also recorded” adds a separate entry of the source. Like-named read-outs stand apart in the source and are kept apart here.

What was measured:
[1] = cited from earlier work
[2] = cited from earlier work; remark: listed apart in the source
[3] = 283 patients with aneurysmal subarachnoid hemorrhage; cited from earlier work
[4] = cited from earlier work; remark: listed apart in the source
[5] = after one month of follow up; loading dose 16 mM then 6 mM/hour for 5 days IV; cited from earlier work
[6] = end of 24 hour infusion, cited from earlier work
[7] = at the end of three months; 4 g IV and 10 g IM within 12 hours of injury, then 5 g IM every 4 hours for 24 hours; cited from earlier work
[8] = pediatric TBI patients; 50 mg/kg IV then 8.3 mg/kg/hour for 24 hours; cited from earlier work
[9] = magnesium therapy; cited from earlier work
[10] = Evaluation of therapy for side effects of magnesium sulfate with and without mannitol treatment
Experimental: Safety—safety of subjects was maintained at all times. Adverse events and clinical laboratory data were obtained. Serious and non-serious adverse effects and clinical laboratory data were compared between groups.
Group 1. Magnesium sulfate 16 gm a day (4 vials each of 1 gm of magnesium sulfate mixed with 100 ml normal saline was infused 6 hourly for five days)
Group 3. Magnesium sulfate 8 gm a day plus mannitol (2 vials each of 1 gm of magnesium sulfate mixed with 50 ml normal saline was infused 6 hourly for five days; in addition 100 ml of 20% mannitol once a day with first dose of magnesium sulfate was administered)
Evaluation of therapy for side effects of magnesium sulfate with and without mannitol treatment

[11] = Clinical study in patients with infarct: Glasgow outcome scale, Barthel Index, Modified Rankin Score; format: in vivo, human
[12] = cited from earlier work; remark: listed apart in the source
[13] = 16 mmol bolus and 65 mmol continuous infusion over 24 hrs; cited from earlier work
[14] = cited from earlier work; remark: listed apart in the source
[15] = cited from earlier work; remark: listed apart in the source
[16] = number out of total 15 patients, magnesium sulfate 16 gm a day, five days

[Mg] [magnesium]
Composite primary outcome at 6 months post-injury ([1]; administration within 8 hours of moderate to severe TBI for 5 days, continuous infusion): did not show any beneficial effects | Mortality ([1]; high dose of magnesium): Significantly higher mortality | Composite score versus placebo ([1]; lower dose of magnesium): worse than the placebo treated patients | Target serum concentrations achieved ([2]; 16 mmol loading infusion): 1.49 mmol/L | Effects on heart rate, blood pressure, or blood glucose ([2]; loading dose 8, 12 or 16 mM followed by 65 mM infusion over 24 hours): no obvious effects | Delayed cerebral ischemia and subsequent poor outcome [3]: reduced | Serum magnesium level ([4]; over 24 hours, 8 mmol over 15 minutes followed by 65 mmol over 24 hours IV, rose from 0.76 mM/L): 1.42 mM/L | Blood pressure or adverse events versus placebo-treated patients ([4]; stroke patients): No differences | Patient outcome, outcome scales (Orgogozo, Mathew, Rankin) [5]: significant positive effect | CSF ionized magnesium increase relative to baseline [6]: 11% | CSF total magnesium increase relative to baseline [6]: 15% | Serum magnesium concentrations relative to baseline ([6]; dose adjusted to serum 2.1-2.5 mM/L): doubled from baseline | Patients with favorable outcome including reduced mortality and intra-operative brain swelling [7]: 73% | Adverse hemodynamic effects [8]: No adverse hemodynamic effects were observed | Outcome at six months [9]: failed to provide a favorable outcome

O=S(=O)([O-])[O-].[Mg+2] [magnesium sulfate]
Incidence of side effects, magnesium sulfate (16 gm) alone compared to magnesium sulfate (8 gm) plus mannitol ([10]; five days treatment): greater; also recorded: higher | Constipation [10, 16]: 4 | Facial flushing [10, 16]: 8 | Heart block [10, 16]: 3 | Hypotension [10, 16]: 3 | Nausea [10, 16]: 5 | Paradoxical bradycardia [10, 16]: 3 | Respiratory distress [10, 16]: 2 | Patient outcome, magnesium sulfate (16 gm) group compared to mannitol group ([11]; magnesium sulfate 16 gm a day for five days): improved | Effectiveness of magnesium sulfate (16 gm) versus magnesium sulfate (8 gm) plus mannitol ([11]; patients with cerebrovascular accidents): equally effective | Patients with good functional outcome ([12]; at 3 months): 60% | Patient status on hospital arrival rated improved ([12]; rated by paramedics, 10 mmol bolus and 64 mmol infusion over 24 hrs): 20% | Patient status on hospital arrival rated unchanged ([12]; rated by paramedics): 75% | Patient status on hospital arrival rated worsened ([12]; rated by paramedics): 5% | Mortality versus placebo [13]: slightly higher | Primary outcome [13]: not improved

OC[C@@H](O)[C@@H](O)[C@H](O)[C@H](O)CO [mannitol, D-mannitol]
Effectiveness of mannitol compared to control ([11]; 100 ml 20% mannitol once a day for five days): not effective compared to control | Glasgow outcome scale (GOS), Barthel Index (BI) and Modified Rankin Score (MRS), mannitol group versus control group ([11]; 100 ml 20% mannitol once a day for five days, day 1, day 5, day 15, day 30): similar | Barthel Index (BI) and Modified Rankin Score (MRS), mannitol group compared to magnesium sulfate (8 gm) plus mannitol group ([11]; day 5, day 15, day 30): significantly higher | Barthel Index (BI) and Modified Rankin Score (MRS), mannitol group compared to magnesium sulfate (16 gm) group ([11]; day 5, day 15, day 30): significantly higher | Glasgow outcome scale (GOS), mannitol group compared to magnesium sulfate (8 gm) plus mannitol group ([11]; day 5, day 15, day 30): significantly lower | Glasgow outcome scale (GOS), mannitol group compared to magnesium sulfate (16 gm) group ([11]; day 5, day 15, day 30): significantly lower | Mortality with acute renal failure ([14]; massive mannitol infusion to 4 male adults): 2/4 | Onset of acute renal failure after infusion ([14]; massive mannitol infusion, Mean+SD): 48 ± 22 h | Half life ([15]; humans with normal renal function): 1.2 h | Osmolal gap corresponding to renal toxicity ([15]; humans): > 55 mosm/kg of water | Serum mannitol concentration at which renal toxicity / acute renal failure occurs ([15]; humans): > 1000 mg/dL | Half life ([15]; uremia patients): 36 h
